Type in all cases: physicochemical
Data set [1] can be described thus: Batch liquid-liquid extraction of oxidized model diesel with 50 W % aqueous acetic acid, gas chromatographic analysis (Example 1, Table 10A). The following applies: for co-extraction: after both extractions; for total extraction: two batch extractions, solvent-to-model diesel about 1:1, 23° C., 1 atmosphere. The method, then: (§1) A quantity of 100 mL of a model diesel feed formed of xylene, DBT, DBT sulfoxide and DBT sulfone (with a total sulfur content of 1635 ppmw) was oxidized by 30 W % aqueous hydrogen peroxide at a temperature of 37° C. and at a pressure of 1 atmosphere for a period of 70 minutes with solid ZnO catalyst (1.2 g) and a ratio of oxidant (H2O2) to organic sulfur of 4:1 in acetic acid, about 10 mL. After the sold catalyst settled, the model diesel was removed for extraction of sulfoxidation products and removal of aqueous H2O2 using an embodiment of the selective solvent formulation of the present invention.
DBT sulfoxide and DBT sulfone were extracted using a selective solvent formulation of 50 W % aqueous acetic acid. Two batch extractions were sequentially conducted using a solvent-to-model diesel ratio of about 1:1 at a temperature of 23° C. and at a pressure of 1 atmosphere for a period of 2 minutes, during which the contents were stirred. The total extraction of DBT sulfoxide and DBT sulfone was 95 W % and 55 W % respectively. Furthermore, the co-extraction of xylene was limited to 1.9 W % after both extractions, and the co-extraction of DBT (not oxidized) was limited to 13.2 W % after both extractions. The total sulfur measured by sulfur speciation (using an ANTEK Model 9000 analyzer commercially available from Antek Instruments, Inc., Houston, Tex. USA) determined that the overall sulfur content was reduced by 55 W % as shown at Table 10B.

Data set [2] is described as follows: Batch liquid-liquid extraction of oxidized model diesel with 50 W % aqueous methanol, gas chromatography (Example 3, Table 12A). The method, then: as §1
A quantity of oxidized model diesel feed as used in Example 1 was subjected to extraction to remove DBT sulfoxide and DBT sulfone using a selective solvent formulation of 50 W % aqueous methanol. One extraction was conducted using a solvent to model diesel ratio of about 1:1 at a temperature of 23° C. and at a pressure of 1 atmosphere for a period of 2 minutes, during which the contents were stirred. The total extraction of DBT sulfoxide was 51.5 W %. […] The co-extraction of DBT (not oxidized) was limited to 3.1 W %. The total sulfur measured by sulfur speciation determined that the overall sulfur content was reduced by 16 W % as shown at Table 12B.

Data set [3] in a line: Batch liquid-liquid extraction of oxidized model diesel with 70 W % aqueous formic acid, gas chromatography (Example 2, Table 11A). The following applies: for total extraction: two batch extractions, about 1:1, 23° C., 1 atmosphere. The method, then:
as §1
A quantity of oxidized model diesel feed as used in Example 1 was subjected to extraction to remove DBT sulfoxide and DBT sulfone using a selective solvent formulation of 70 W % aqueous formic acid. Two batch extractions were sequentially conducted using a solvent to model diesel ratio of about 1:1 at a temperature of 23° C. and at a pressure of 1 atmosphere for a period of 2 minutes, during which the contents were stirred. The total extraction of DBT sulfoxide and DBT sulfone was 94 W % and 56 W % respectively. Furthermore, the co-extraction of xylene was limited to 2 W % after the first extraction, and increased by 3.8 W % after the second extraction, based on the normalization percentage of the peak regions for the GC analysis for each extraction. The normalization method is qualitative and quasi-quantitative, so that the peak area varies. The slight positive (3.8%) of xylene is due to the normalization of the sum of all peaks and it was changed by material balance variation and/or with measurement error.
The co-extraction of DBT (not oxidized) was limited to 10 W % after both extractions. The total sulfur measured by sulfur speciation determined that the overall sulfur content was reduced by 56 W % as shown in Table 11B.

The mark [4] stands for this setting: Model diesel oxidized, before extraction.
The mark [5] stands for this setting: after 1st extraction, 50 W % aqueous acetic acid.
The mark [6] stands for this setting: after 1st extraction, 50 W % aqueous acetic acid, solvent:diesel about 1:1, 23° C., 2 minutes.
[7] abbreviates: after 2nd extraction, 50 W % aqueous acetic acid.
Setting [8] is: after 2nd extraction, 50 W % aqueous acetic acid, solvent:diesel about 1:1, 23° C., 2 minutes.
Where [9] appears, read: 50 W % aqueous methanol, one extraction.
[10] abbreviates: after 1st extraction, 50 W % aqueous methanol.
The mark [11] stands for this setting: after 1st extraction, 50 W % aqueous methanol, solvent:diesel about 1:1, 23° C., 2 minutes.
Where [12] appears, read: after 1st extraction, 70 W % aqueous formic acid.
[13] abbreviates: after 1st extraction, 70 W % aqueous formic acid, solvent:diesel about 1:1, 23° C., 2 minutes.
The mark [14] stands for this setting: after 2nd extraction, 70 W % aqueous formic acid.
Where [15] appears, read: after 2nd extraction, 70 W % aqueous formic acid, solvent:diesel about 1:1, 23° C., 2 minutes.
Setting [16] is: 50 W % aqueous acetic acid, 2 minutes.
Where [17] appears, read: 70 W % aqueous formic acid, 2 minutes.

The results in this text go back to US20160244679A1, “SELECTIVE LIQUID-LIQUID EXTRACTION OF OXIDATIVE DESULFURIZATION REACTION PRODUCTS” (SAUDI ARABIAN OIL COMPANY, priority 2011, published 2016).

With xylene, the co-extraction in data set [1] (50 W % aqueous acetic acid) is listed as 1.9 W %; in data set [2] (setting [9]), “no co-extraction”; in data set [3] (70 W % aqueous formic acid, after the first extraction) it was 2 W %. The “GC abundance in model diesel” value is listed as 9283.7 abundance units in data set [1] (setting [4]); 9155.2 abundance units in data set [1] (setting [6]); 9108.19 abundance units in data set [1] (setting [8]); 9283.7 abundance units in data set [2] (setting [4]); 9540.4 abundance units in data set [2] (setting [11]); 9283.7 abundance units in data set [3] (setting [4]). Also, the “GC abundance in model diesel” value in data set [3] (setting [13]) came to 9111.6 abundance units; in data set [3] (setting [15]) it was 9635.5 abundance units. The “change of GC abundance versus oxidized model diesel” value (shortened to “change”) is “(−1.4%)” in data set [1] (setting [5]); “(−1.9%)” in data set [1] (setting [7]); “+2.8%)” in data set [2] (setting [10]); “(−1.9%)” in data set [3] (setting [12]); “(+3.8%)” in data set [3] (setting [14]). Also, the “amount increased after extraction (normalized GC results)” value in data set [2] (setting [9]) is listed as 2.8 W %. In addition, the “increase after the second extraction (normalized GC peak)” value in data set [3] (70 W % aqueous formic acid, after the second extraction) came out at 3.8 W %.

For `[O-][s+]1c2ccccc2c2ccccc21` [DBT sulfoxide, dibenzothiophene 5-oxide], the total extraction in data set [1] (setting [16]) is on record as 95 W %; in data set [2] (50 W % aqueous methanol, one extraction, about 1:1, 23° C., 1 atmosphere, 2 minutes), 51.5 W %; in data set [3] (setting [17]), 94 W %. Further, the “GC abundance in model diesel” value in data set [1] (setting [4]) was 24.02 abundance units; in data set [1] (setting [6]), 7.81 abundance units; in data set [1] (setting [8]) it was 1.26 abundance units; in data set [2] (setting [4]) it was 24.02 abundance units; in data set [2] (setting [11]) it was 11.64 abundance units; in data set [3] (setting [4]) it was 24.02 abundance units. In addition, the “GC abundance in model diesel” value in data set [3] (setting [13]) came to 6.45 abundance units; in data set [3] (setting [15]), 1.38 abundance units. Further, the “change” value is given as “(−67.5%)” in data set [1] (setting [5]); “(−94.8%)” in data set [1] (setting [7]); “(−51.5%)” in data set [2] (setting [10]); “(−73.1%)” in data set [3] (setting [12]); “(−94%)” in data set [3] (setting [14]).

Consider `c1ccc2c(c1)sc1ccccc12` [DBT, dibenzothiophene], for which the co-extraction in data set [1] (50 W % aqueous acetic acid) stood at 13.2 W %; in data set [2] (setting [9]), 3.1 W %; in data set [3] (70 W % aqueous formic acid, after both extractions), 10 W %. The “GC abundance in model diesel” value is on record as 24.44 abundance units in data set [1] (setting [4]); 22.09 abundance units in data set [1] (setting [6]); 21.22 abundance units in data set [1] (setting [8]); 24.44 abundance units in data set [2] (setting [4]); 23.69 abundance units in data set [2] (setting [11]); 24.44 abundance units in data set [3] (setting [4]). Moreover, the “GC abundance in model diesel” value in data set [3] (setting [13]) is 21.89 abundance units; in data set [3] (setting [15]), 22 abundance units. Moreover, the “change” value in data set [1] (setting [5]) is listed as “(−9.6%)”; in data set [1] (setting [7]), “(−13.2%)”; in data set [2] (setting [10]), “(−3.1%)”; in data set [3] (setting [12]) it was “(−10.4%)”; in data set [3] (setting [14]), “(−10.0%)”.

In the case of `O=S1(=O)c2ccccc2-c2ccccc21` [DBT sulfone, dibenzothiophene 5,5-dioxide], the total extraction in data set [1] (setting [16]) is 55 W %; in data set [3] (setting [17]), 56 W %. Also, the “GC abundance in model diesel” value in data set [1] (setting [4]) is given as 25.09 abundance units; in data set [1] (setting [6]), 19.15 abundance units; in data set [1] (setting [8]) it was 11.39 abundance units; in data set [2] (setting [4]), 25.09 abundance units; in data set [2] (setting [11]) it was 24.49 abundance units; in data set [3] (setting [4]), 25.09 abundance units. Also, the results for the “GC abundance in model diesel” value in data set [3] (setting [13]) and in data set [3] (setting [15]) were 17.46 abundance units and 11.14 abundance units, respectively. Also, the “change” value in data set [1] (setting [5]) is given as “(−23.7%)”; in data set [1] (setting [7]) it was “(−54.8%)”; in data set [2] (setting [10]), “(−2.4%)”; in data set [3] (setting [12]) it was “(−30.4%)”; in data set [3] (setting [14]), “(−55.6%)”.
